In ChEMBL document CHEMBL3046289, “Synthesis and in vitro antimicrobial activity of some newer quinazolinonesulfonamide linked hybrid heterocyclic entities derived from glycine” (2013):
In brackets after ≈: the same amount, converted by molar mass.

Tests used:
Type in all cases: functional
Bacillus cereus = test: Antibacterial activity against Bacillus cereus MTCC 1305 assessed as growth inhibition after 24 hr by broth microdilution method; settings: MTCC 1305, 24 h
Candida albicans = test: Antifungal activity against Candida albicans MTCC 227 assessed as growth inhibition after 48 hr by broth microdilution method; settings: MTCC 227, 48 h
Escherichia coli = test: Antibacterial activity against Escherichia coli MTCC 443 assessed as growth inhibition after 24 hr by broth microdilution method; settings: MTCC 443, 24 h
Pseudomonas aeruginosa = test: Antibacterial activity against Pseudomonas aeruginosa MTCC 1688 assessed as growth inhibition after 24 hr by broth microdilution method; settings: MTCC 1688, 24 h
Klebsiella pneumoniae = test: Antibacterial activity against Klebsiella pneumoniae MTCC 139 assessed as growth inhibition after 24 hr by broth microdilution method; settings: MTCC 139, 24 h
Aspergillus niger = test: Antifungal activity against Aspergillus niger MTCC 282 assessed as growth inhibition after 48 hr by broth microdilution method; settings: MTCC 282, 48 h
Staphylococcus aureus = test: Antibacterial activity against Staphylococcus aureus MTCC 2940 assessed as growth inhibition after 24 hr by broth microdilution method; settings: MTCC 2940, 24 h

SMILES | MIC (Bacillus cereus) [µg/mL] | MIC (Candida albicans) [µg/mL] | MIC (Escherichia coli) [µg/mL] | MIC (Pseudomonas aeruginosa) [µg/mL] | MIC (Klebsiella pneumoniae) [µg/mL] | MIC (Aspergillus niger) [µg/mL] | MIC (Staphylococcus aureus) [µg/mL]
CC(=O)Nc1ccc(S(=O)(=O)NCc2nc3ccccc3c(=O)n2-c2ccccc2F)cc1 | 105 (≈ 225 µM) | 85 (≈ 182 µM) | 80 (≈ 171 µM) | 95 (≈ 204 µM) | 95 (≈ 204 µM) | 70 (≈ 150 µM) | 85 (≈ 182 µM)
Nc1ccc(S(=O)(=O)NCc2nc3ccccc3c(=O)n2-c2ccc(Cl)cc2)cc1 | 55 (≈ 125 µM) | 45 (≈ 102 µM) | 45 (≈ 102 µM) | 50 (≈ 113 µM) | 75 (≈ 170 µM) | 40 (≈ 90.7 µM) | 45 (≈ 102 µM)
Nc1ccc(S(=O)(=O)NCc2nc3ccccc3c(=O)n2-c2cccc(Br)c2)cc1 | 60 (≈ 124 µM) | 45 (≈ 92.7 µM) | 50 (≈ 103 µM) | 55 (≈ 113 µM) | 75 (≈ 155 µM) | 40 (≈ 82.4 µM) | 50 (≈ 103 µM)
Nc1ccc(S(=O)(=O)NCc2nc3ccccc3c(=O)n2-c2ccc([N+](=O)[O-])cc2)cc1 | 75 (≈ 166 µM) | 55 (≈ 122 µM) | 55 (≈ 122 µM) | 60 (≈ 133 µM) | 75 (≈ 166 µM) | 45 (≈ 99.7 µM) | 65 (≈ 144 µM)
Nc1ccc(S(=O)(=O)NCc2nc3ccccc3c(=O)n2Nc2ccccc2)cc1 | 105 (≈ 249 µM) | 115 (≈ 273 µM) | 90 (≈ 214 µM) | 95 (≈ 225 µM) | 115 (≈ 273 µM) | 105 (≈ 249 µM) | 100 (≈ 237 µM)
CC1(C)S[C@@H]2[C@H](NC(=O)[C@H](N)c3ccccc3)C(=O)N2[C@H]1C(=O)O [AMPICILLIN] | 60 (≈ 172 µM) |  | 50 (≈ 143 µM) | 55 (≈ 157 µM) | 85 (≈ 243 µM) |  | 45 (≈ 129 µM)
Nc1ccc(S(=O)(=O)NCc2nc3ccccc3c(=O)n2-c2ccccc2)cc1 | 95 (≈ 234 µM) | 100 (≈ 246 µM) | 80 (≈ 197 µM) | 85 (≈ 209 µM) | 95 (≈ 234 µM) | 90 (≈ 221 µM) | 85 (≈ 209 µM)
Nc1ccc(S(=O)(=O)NCc2nc3ccccc3c(=O)n2-c2ccc(Br)cc2)cc1 | 65 (≈ 134 µM) | 55 (≈ 113 µM) | 50 (≈ 103 µM) | 50 (≈ 103 µM) | 75 (≈ 155 µM) | 45 (≈ 92.7 µM) | 55 (≈ 113 µM)
COc1cccc(-n2c(CNS(=O)(=O)c3ccc(NC(C)=O)cc3)nc3ccccc3c2=O)c1 | 90 (≈ 188 µM) | 70 (≈ 146 µM) | 75 (≈ 157 µM) | 100 (≈ 209 µM) | 110 (≈ 230 µM) | 65 (≈ 136 µM) | 85 (≈ 178 µM)
Nc1ccc(S(=O)(=O)NCc2nc3ccccc3c(=O)n2-c2ccccc2F)cc1 | 90 (≈ 212 µM) | 65 (≈ 153 µM) | 65 (≈ 153 µM) | 70 (≈ 165 µM) | 95 (≈ 224 µM) | 55 (≈ 130 µM) | 65 (≈ 153 µM)
CC(=O)Nc1ccc(S(=O)(=O)NCc2nc3ccccc3c(=O)n2Nc2ccccc2)cc1 | 130 (≈ 280 µM) | 120 (≈ 259 µM) | 115 (≈ 248 µM) | 125 (≈ 270 µM) | 145 (≈ 313 µM) | 105 (≈ 227 µM) | 100 (≈ 216 µM)
CC(=O)Nc1ccc(S(=O)(=O)NCc2nc3ccccc3c(=O)n2-c2cccc(C)c2)cc1 | 105 (≈ 227 µM) | 80 (≈ 173 µM) | 80 (≈ 173 µM) | 115 (≈ 249 µM) | 120 (≈ 259 µM) | 75 (≈ 162 µM) | 95 (≈ 205 µM)
CC(=O)Nc1ccc(S(=O)(=O)NCc2nc3ccccc3c(=O)n2-c2cccc(Br)c2)cc1 | 90 (≈ 171 µM) | 70 (≈ 133 µM) | 70 (≈ 133 µM) | 70 (≈ 133 µM) | 90 (≈ 171 µM) | 55 (≈ 104 µM) | 65 (≈ 123 µM)
Nc1ccc(S(N)(=O)=O)cc1 [SULFANILAMIDE] | 55 (≈ 319 µM) | 60 (≈ 348 µM) | 55 (≈ 319 µM) | 65 (≈ 377 µM) | 80 (≈ 465 µM) | 50 (≈ 290 µM) | 50 (≈ 290 µM)
Cc1ccccc1-n1c(CNS(=O)(=O)c2ccc(N)cc2)nc2ccccc2c1=O | 105 (≈ 250 µM) | 100 (≈ 238 µM) | 70 (≈ 166 µM) | 80 (≈ 190 µM) | 100 (≈ 238 µM) | 90 (≈ 214 µM) | 90 (≈ 214 µM)
Nc1ccc(S(=O)(=O)NCc2nc3ccccc3c(=O)n2-c2ccccc2[N+](=O)[O-])cc1 | 85 (≈ 188 µM) | 65 (≈ 144 µM) | 70 (≈ 155 µM) | 75 (≈ 166 µM) | 95 (≈ 210 µM) | 55 (≈ 122 µM) | 75 (≈ 166 µM)
CC(=O)Nc1ccc(S(=O)(=O)NCc2nc3ccccc3c(=O)n2-c2ccc(C)cc2)cc1 | 105 (≈ 227 µM) | 85 (≈ 184 µM) | 85 (≈ 184 µM) | 105 (≈ 227 µM) | 115 (≈ 249 µM) | 70 (≈ 151 µM) | 95 (≈ 205 µM)
CC(=O)Nc1ccc(S(=O)(=O)NCc2nc3ccccc3c(=O)n2-c2ccccc2Cl)cc1 | 100 (≈ 207 µM) | 75 (≈ 155 µM) | 70 (≈ 145 µM) | 75 (≈ 155 µM) | 100 (≈ 207 µM) | 60 (≈ 124 µM) | 70 (≈ 145 µM)
CC(=O)Nc1ccc(S(=O)(=O)NCc2nc3ccccc3c(=O)n2-c2ccc(F)cc2)cc1 | 95 (≈ 204 µM) | 80 (≈ 171 µM) | 75 (≈ 161 µM) | 85 (≈ 182 µM) | 95 (≈ 204 µM) | 55 (≈ 118 µM) | 80 (≈ 171 µM)
